Laboratory results from US3998963A, “Tertiary butyl substituted carbamoyl oxime pesticides” (priority 1975, dated 1976).
In brackets after ≈: the same amount, converted by molar mass. Like-named read-outs stand apart in the source and are kept apart here.

Assays:
Format in all cases: in vivo
[1] = tested on: houseflies (Musca domestica, L.); test: Fly Immersion Test; details: for LC50: Musca domestica, immersion (contact), 24 hours, read-out: Imm LD50, Housefly; for (Imm/Bait), Housefly: ratio immersion/bait LD50; for contact vs stomach poison, house fly (in words): immersion vs bait
Protocol: (§1) Suspensions of the test compouns were prepared by dissolving one gram of compound in 50 milliliters of acetone in which had been dissolved 0.1 gram (10 percent of the weight of compound) of an alkylphenoxy polyethoxyethanol surfactant, as an emulsifying or dispersing agent. The resulting solution was mixed into 150 milliliters of water to give roughly 200 milliliters of a suspension containing the compound in finely divided form. The thus-prepared stock suspension contained 0.5 percent by weight of compound. The test concentrations in parts per million by weight employed in the tests described hereinbelow were obtained by appropriate dilutions of the stock suspension with water. The test procedures were as follows:
The test organisms used were 4 to 6 day old adult houseflies (Musca domestica, L.) reared under controlled conditions of 80° + 5° F. and 50 + 5 percent relative humidity. The adult flies were immobilized by anesthetizing with CO2. Twenty-five immobilized individuals (males and females) were then used for the test of each test compound.
Twenty-five randomly selected adult flies were thoroughly wetted in a formulated mixture of the test chemical (50 ml) by pouring the insects and formulation from one beaker to another six times. Excess liquid was removed by transferring the insects into a standard food strainer (5-inch diameter) which was then blotted with a paper towel. The treated flies were transferred to clean food strainer which was inverted over a paper cup containing a wad of cotton saturated with a 10 percent aqueous sugar solution provided as food for surviving insects. An equivalent amount of a water solution containing acetone and emulsifier in the same concentrations as the insecticidal mixture but without the candidate insecticide was applied to other flies in the same manner. These insects serve as controls for the experiment.
The surviving caged flies were allowed to feed on the sugar water for a period of 24 hours. Room temperature and humidity are 80° + 5° F. and 50 + 5 percent relative humidity, respectively. At the end of the holding period flies which show no sign of movement upon stimulation were considered dead.
(§2) In Table 1 are presented insect and rat toxicity data (bait tests) on a comparative basis of the compounds described above. […] Rat toxicity is also more meaningfully compared on the basis of molar weight LD50 values. The relative efficacy of the parent compounds as compared to the previously known derivatives and as compared to the new compounds of this invention is also shown in Table 1. The ratio of efficacy as contact poisons (immersion/bait) of the compounds tested against Armyworm and House Fly is presented in Table 2 along with the results of the phytotoxicity tests of the compounds on bean, corn, tomato and cotton.

rat = test: Mammalian Toxicity (peroral, rat); details: for (b) relative value of derivative vs parent compound, Rat LD50: peroral, formula of footnote b is drawing 8; for mammalian toxicity (in words): text statement
Protocol: (§3) These compositions were also evaluated to determine their peroral toxicity to mammals by conventional methods. The animal selected for this experiment was the rat. The test results obtained are expressed in terms of the number of milligrams of composition per kilogram of weight of the animal required to achieve a mortality rate of 50 percent (LD50).
as §2

[2] = Mammalian Toxicity (peroral, rat); details: rat, in vivo, po, peroral
Protocol: as §3, §2

[3] = tested on: bean, corn, tomato or cotton; test: Phytotoxicity Test, crop plants overall; details: text statement
Protocol: Each of the new compounds were evaluated in comparison with known similar prior art compounds to determine their comparative pesticidal activity against mites and certain insects, including an aphid, caterpillar, a beetle and a fly. The new compounds were also tested for phytotoxicity on important economic crops including bean, corn, tomato and cotton. The new compounds were further evaluated for mammalian toxicity.
as §1
(§4) Experiments were also conducted to determine the phytotoxicity of representative compositions with respect to healthy fresh plants. Solutions of the compounds were prepared as described above to provide a concentration of 2500 parts per million of the test compound. The test plants were sprayed in accordance with the procedure described above for the Mite Foliage Spray Test so as to deliver approximately 100 milliliters of test solution to the leaves of each plant tested. The sprayed plants and controls were set aside for approximately one hour to allow the foliage to dry and were then placed in the greenhouse. After ten days the plants were visually inspected to determine the extent of foliage injury. A rating of 1 indicates no perceptible injury; 5 indicates the plant was dead and ratings of 2, 3 and 4 indicate intermediate degrees of injury based upon the number and extent to which leaves were injured.

[4] = tested on: two-spotted mite (Tetranychus urticae Koch); test: Mite Foliage Spray Test; details: foliar, 144 h, 6 days, read-out: Insect LD50, Mite
Protocol: as §1
Adults and nymphal stage of the two-spotted mite (Tetranychus urticae Koch), reared on Tendergreen bean plants at 80±5 per cent relative humidity, were the test organisms. Infested leaves from a stock culture were placed on the primary leaves of two bean plants 6 to 8 inches in height, growing in a 21/2 inch clay pot. 150-200 Mites, a sufficient number for testing, transferred from the excised leaves to the fresh plants in a period of twenty four hours. Following the twenty four hour transfer period, the excised leaves were removed from the infested plants. The test compounds were formulated by diluting the stock suspension with water to give a suspension containing 500 parts of test compound per million parts of final formulation. The potted plants (one pot per compound) were placed on a revolving turntable and sprayed with 100-110 milliliters of test compound formulation by use of a DeVilbiss spray gun set at 40 psig. air pressure. This application, which lasted 25 seconds, was sufficient to wet the plants to run-off. As a control, 100-110 milliliters of a water solution containing acetone and emulsifier in the same concentrations as the test compound formulation, but containing no test compound, were also sprayed on infested plants. The sprayed plants were held at 80±5 per cent relative humidity for 6 days, after which a mortality count of motile forms was made. Microscopic examination for motile forms was made on the leaves of the test plants. Any individual which was capable of locomotion upon prodding was considered living.

[5] = tested on: southern armyworm (Spodoptera eridania, (Cram.)); test: Armyworm Immersion Test; details: for LC50: Spodoptera eridania, 72 h, immersion (contact), 3 days, read-out: Imm LD50, Armyworm; for (Imm/Bait), Armyworm: ratio immersion/bait LD50; for contact vs stomach poison, army worm (in words): immersion vs bait
Protocol: as §1
The test organism used was the fourth instar larvae of the southern armyworm (Spodoptera eridania, (Cram.)) reared on Tendergreen beans in a room where temperature was held at 80° ± 5° F. and relaitve humidity 50 ± 5 percent.
Ten randomly selected larvae were thoroughly wetted in a formulated mixture of the chemical (50 ml) by pouring the insects and formulation from one beaker to another six times. Excess liquid was removed by transferring the larvae to paper towels. An equivalent amount of a water solution containing acetone and emulsifier in the same concentrations as the insecticidal mixture but without the candidate insecticide was applied in the same manner as a controls for the experiment. When dry, 5 larvae were placed in each of two 9-cm Petri dishes lined with filter paper and containing one fully expanded Tendergreen bean leaf per dish as food.
The closed dishes were held at 80°-85° F. for 3 days. Although the larvae can easily consume the whole leaf within 24 hours, no more food was added. Check larvae remained vigorous during the entire holding period. At the end of the holding period larvae which were unable to move the length of the body, even upon stimulation, were considered dead.
as §2

cotton = test: Phytotoxicity Test, cotton; details: for Phytotoxicity, Cotton: 2500 parts per million, ten days; for phytotoxicity to cotton (in words): text statement
Protocol: as §1, §4

bean = test: Phytotoxicity Test, bean; details: 2500 parts per million; ten days
Protocol: as §1, §4

[6] = Table II, read-out: Rat Tox. LD50
[7] = molar weight LD50, Table I, read-out: Rat LD50/mole wt. [a]

SMILES | LC50 [1] [µg/mL] | (Imm/Bait), Housefly [1] | (b) relative value of derivative vs parent compound, Rat LD50 (rat) | LD50 ([2]; Table I, read-out: Rat LD50) [mg/kg] | LD50 [2, 6] [mg/kg] | LD50 [2, 7] [µmol/kg] | phytotoxicity (in words) [3] | LC50 [4] [µg/mL] | LC50 [5] [µg/mL] | (Imm/Bait), Armyworm [5] | Phytotoxicity, Cotton (cotton) | Phytotoxicity, Bean (bean) | contact vs stomach poison, house fly (in words) [1] | LD50 ([2]; read-out: rat LD50 (molar)) [µmol/kg] | contact vs stomach poison, army worm (in words) [5] | further results
CC(=NOC(=O)N(C)Sc1ccc(C(C)(C)C)cc1)SC(C)C [Compound 9, O-[N-Methyl-N-[4-(t-Butylphenyl)sulfenyl]carbamoyl] S-Isopropyl Thiolacetohydroximate] | 10 (≈ 28.2 µM) | 0.2 | 0.2 | 71.3 | 71.3 | 200 | extremely low phytotoxicity | 42 (≈ 118 µM) | 5 (≈ 14.1 µM) | 0.25 | – | – | – | – | – | mammalian toxicity (in words) (rat): substantial reduction in mammalian toxicity; mammalian toxicity (in words) (rat; listed as O-[ N-methyl-N-[4-(t-butylphenyl) sulfenyl] carbamoyl] S-isopropyl thiolacetohyd): very low level of mammalian toxicity
CCSC(C)=NOC(=O)NC [Compound 3] | – | – | – | – | 17.7 | – | – | 250 (≈ 1420 µM) | – | – | 2 | 2 | – | – | – | –
CSC(C)=NOC(=O)N(C)Sc1ccc(C(C)(C)C)cc1 [Compound 8, O-[N-Methyl-N-[4-(t-butylphenyl)sulfenyl]carbamoyl] S-Methyl Acetothiolhydroximate] | 14 (≈ 42.9 µM) | 0.8 | 0.5 | 196 | 196 | – | very low phytotoxicity | 380 (≈ 1160 µM) | 4 (≈ 12.3 µM) | 1 | Bu 2 | – | outstanding contact poison | 600 | outstanding contact poison | phytotoxicity to cotton (in words) (cotton): moderate leaf burn injury; mammalian toxicity (in words) (rat): extremely low mammalian toxicity; safety relative to the parent (molar) (rat; vs parent compound, molar basis): about twice as safe as the parent; less toxic to mammals than its parent compound, weight basis (rat; vs parent compound, weight basis): at least 4 times
CC(=NOC(=O)N(C)Sc1ccc(Cl)cc1)SC(C)C [Compound 5] | 25 (≈ 75.1 µM) | 0.5 | 0.83 | 16.2 | 16.2 | 48 | – | 58 (≈ 174 µM) | 4.5 (≈ 13.5 µM) | 0.15 | Bu 2 | Trif. 3 | – | – | – | –
CNC(=O)ON=C(C)SC [Compound 1, O-(methylcarbamoyl) S-methyl acetothiolhydroximate] | 32 (≈ 197 µM) | 8 | – | 48.5 | 48.5 | – | phytotoxic to one or more of the crop plants | 500 (≈ 3080 µM) | 8 (≈ 49.3 µM) | 2 | *Bu 3 | BuCl 2 | significantly more toxic as stomach poisons than as contact poisons | 330 | significantly more toxic as stomach poisons than as contact poisons | phytotoxicity to cotton (in words) (cotton): so great as to significantly curtail the use of this otherwise highly desirable pesticide on cotton
CSC(C)=NOC(=O)N(C)Sc1ccc(C)cc1 [Compound 6] | 14 (≈ 49.2 µM) | 7 | 1.5 | 56.6 | 56.6 | – | – | 95 (≈ 334 µM) | 10 (≈ 35.2 µM) | 1.7 | Bu 2 | – | – | 200 | – | more toxic to mammals than the parent compound (rat; molar LD50 comparison, vs compound 1): at least 50%
CC(=NOC(=O)N(C)Sc1ccc(C)cc1)SC(C)C [Compound 7] | 25 (≈ 80 µM) | 0.5 | 0.67 | 18.7 | 16.2 | 60 | – | 42 (≈ 134 µM) | 14.4 (≈ 46.1 µM) | 1.2 | – | – | – | – | – | –
CSC(C)=NOC(=O)N(C)Sc1ccc(Cl)cc1 [Compound 4] | 24 (≈ 78.7 µM) | 3 | 1.43 | 65 | 65 | 210 | – | 500 (≈ 1640 µM) | 47 (≈ 154 µM) | 0.47 | *Bu 3 | Trif. 3 | – | – | – | –
CNC(=O)ON=C(C)SC(C)C [Compound 2] | 66 (≈ 347 µM) | 6 | – | 7.7 | 7.7 | 40 | phytotoxic to one or more of the crop plants | 450 (≈ 2370 µM) | 53 (≈ 279 µM) | 3.1 | Bu 2 | Bu 2 | significantly more toxic as stomach poisons than as contact poisons | – | significantly more toxic as stomach poisons than as contact poisons | –
